Source: patent US9278083B2, “Methods for purifying trans-(−)-Δ9-tetrahydrocannabinol and trans-(+)-Δ9-tetrahydrocannabinol” (SVC Pharma LP, priority 2004, dated 2016)

Experiment: Storage stability of crystalline (±)-Δ^9-THC at 25° C.

SMILES: CCCCCc1cc(O)c2c(c1)OC(C)(C)[C@@H]1CCC(C)=C[C@@H]21 (racemic) [crystalline (±)-Δ^9-THC, (±)-Δ^9-THC]
- Stability on storage (off-white crystals of Example 17, at 25° C. in the presence of air and laboratory lighting): stable
- Appearance (colour) on storage (white crystalline solid of Example 15, after at least three days at 25° C.): remained white
